Reference: US4248892A, “Antifibrotic agent” (Takeda Chemical Industries, Ltd., priority 1978, dated 1981)
Where two headings read alike, the source gives them in different places.

Key:
[1] = target: T1, protocollagen prolyl hydroxylase (Gallus gallus, UniProt P16924); experiment: Activity to inhibit protocollagen prolyl hydroxylase; type: biochemical, chick embryos; settings: concentration required for 50% inhibition of enzymic activity; pH 7.8, 37° C., 30 minutes; substrate (Pro-Pro-Gly)5.4H2O; read-out: ID50 (the source's name) (converted)
T1 construct: 190 chick embryos (14 days old) were homogenized; from tissue; host or cells: whole 14-day chick embryos; Triton X-100 extract, ammonium sulfate, calcium phosphate gel and DEAE-cellulose fractions
T1 sequence (P16924 1-516): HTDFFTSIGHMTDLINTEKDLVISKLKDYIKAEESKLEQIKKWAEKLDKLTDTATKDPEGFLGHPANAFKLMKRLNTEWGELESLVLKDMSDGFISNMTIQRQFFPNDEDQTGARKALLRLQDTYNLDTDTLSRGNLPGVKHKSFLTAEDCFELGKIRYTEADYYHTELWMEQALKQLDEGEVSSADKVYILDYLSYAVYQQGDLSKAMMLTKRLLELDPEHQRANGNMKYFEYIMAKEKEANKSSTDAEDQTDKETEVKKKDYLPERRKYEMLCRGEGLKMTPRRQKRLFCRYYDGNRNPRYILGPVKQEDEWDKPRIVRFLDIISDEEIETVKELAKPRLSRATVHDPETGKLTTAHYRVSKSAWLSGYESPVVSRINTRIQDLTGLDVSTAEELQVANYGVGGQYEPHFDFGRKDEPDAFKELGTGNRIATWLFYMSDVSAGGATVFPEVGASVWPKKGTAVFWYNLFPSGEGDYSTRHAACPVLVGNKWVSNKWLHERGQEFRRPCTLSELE
T1 sequence (P09102 23-515 partner): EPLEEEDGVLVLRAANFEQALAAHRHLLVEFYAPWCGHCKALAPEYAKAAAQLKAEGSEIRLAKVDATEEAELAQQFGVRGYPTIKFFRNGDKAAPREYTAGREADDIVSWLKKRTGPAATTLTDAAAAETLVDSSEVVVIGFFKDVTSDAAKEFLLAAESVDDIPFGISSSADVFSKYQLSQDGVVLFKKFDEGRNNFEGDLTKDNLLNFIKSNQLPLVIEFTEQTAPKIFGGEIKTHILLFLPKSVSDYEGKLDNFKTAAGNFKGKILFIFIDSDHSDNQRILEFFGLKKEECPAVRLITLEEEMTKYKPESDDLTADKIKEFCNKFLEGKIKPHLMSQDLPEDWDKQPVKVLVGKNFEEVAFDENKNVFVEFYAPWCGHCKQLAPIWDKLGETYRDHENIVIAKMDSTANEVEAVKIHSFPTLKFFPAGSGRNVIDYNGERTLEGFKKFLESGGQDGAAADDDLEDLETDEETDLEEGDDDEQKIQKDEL
Experimental: Method for the preparation of protocollagen prolyl hydroxylase: The method of K.I. Kivirikko et al and that of J. Halme et al were partially modified. [cf. Journal of Biological Chemistry 242, 4007 (1967) and Biochimica et Biophysica Acta 198, 460 (1970)]. Thus, 190 chick embryos (14 days old) were homogenized in 1600 ml of NaCl-GlycineTris[tris(hydroxymethyl)aminomethane]-HCl buffer containing 0.1% Triton [polyethylene glycol p-isooctylphenyl ether] X-100 (pH 7.5) and centrifuged. […]
Thus, 1.5 ml of a reaction mixture containing 50 μmols of Tris-HCl buffer (pH 7.8), 0.1 μmol of 1-^14 C-α-ketoglutarate (0.016 μ Ci), 0.5 μmol of ascorbate, 0.1 μmol of ferrous ammonium sulfate, 4.0 mg of heat denatured bovine serum albumin, 0.1 mg of crystalline bovine liver catalase, 0.15 μmol of dithiothreitol, 0.15 mg of (Pro-Pro-Gly)5.4H2 O, 0.5 ml of the enzyme solution and 0.1 ml of either methanol or methanol solution containing an inhibitor was put in a sealed test tube in which a filter paper impregnated with Hyamine (Hydroxide and Hyamine 10-X (Packard Instrument Co.)] had been hung and the reaction was carried out under shaking at 37° C. for 30 minutes. The reaction was terminated by the addition of 0.5 ml of 25% trichloroacetic acid and the enzymic activity was determined by measuring the radioactivity of the released ^14 CO2 trapped in filterpaper. […]

collagen biosynthesis [2] = experiment: Inhibition of collagen biosynthesis in normal rats (uteri of 17-β-estradiol-stimulated immature rats); type: in vivo, SD rats (female, 3 weeks old); settings: i.p. 100 mg/kg at intervals of 24 hours, 6 days; for inhibition at 100 mg/kg: Rattus norvegicus, ip, vs 17-β-estradiol control
Experimental: According to the partially modified method of R.A. Salvador et al [Archives of Biochemistry and Biophysics 174, 382 (1976)], the following experiment was carried out with SD rats (female, 3 weeks old) in groups of 4 animals.
The test compound suspended in 4% gum arabic-physiological saline was intraperitoneally administered to rats in doses of 100 mg/kg at intervals of 24 hours for 6 consecutive days.
During the final 3 days, 5 μg/rat of 17-β-estradiol in 5% ethanol-saline solution or 5% ethanol-saline solution was administered one hour after the administration of compound (I). On the 7th day, each rat was killed and the uterus was excised, washed with ethanol-diethylether, dried at 60° C. for 2 hours and weighted to know the dry weight. The dry preparation was hydrolyzed with 3 ml of 6N-HCl at 110° C. for 22 hours, after which it was concentrated to dryness to remove the hydrochloric acid. The total amino acid in the hydrolyzate was determined by ninhydrin assay and from this value the total protein content of uterus was calculated as leucine equivalent. The amount of hydroxyproline in the hydrolyzate was also measured by the method of Blumenkratz et al [Analytical Biochemistry 63, 331 (1975)] and multiplied by 7.23 to obtain the amount of collagen. The amount of noncollagenous protein was calculated by substracting the amount of collagen from the total amount of protein.
The inhibitory activity of this compound on the synthesis of collagen and noncollagenous protein in the uteri of 17-β-estradiol-stimulated immature rats are shown as % reductions in the amounts of collagen and noncollagenous protein. Inhibition rate is calculated by the equation described in the legend of Table 2.

[3] = tested on: protocollagen prolyl hydroxylase; experiment: Protocollagen prolyl hydroxylase activity in liver in carbon tetrachloride-induced hepatic cirrhosis; type: in vivo, Male Sprague-Dawley rats; settings: CCl4 + compound, i.p. 100 mg/kg three times weekly, total 10 doses, dpm = decay per minute
Experimental: (§1) Male Sprague-Dawley rats weighting approximately 150 g each were divided into three groups. The first group received both 10% CCl4 -olive oil mixture (1 ml/rat) and compound (I) (100 mg/kg) intraperitoneally three times weekly for a total 10 doses. The second and third groups received 10% CCl4 -olive oil mixture (1 ml/rat) and olive oil (1 ml/rat) intraperitoneally three times weekly for a total 10 doses, respectively. The rats were sacrificed two days after the last injection and the livers were immediately removed for the assays.
A 10% homogenate of the liver was prepared in 20 m mol/l Tris-HCl buffer (pH 7 5) containing 0.2 mol/l NaCl, 0.1 mol/l glycine, 5×10^-5 mol/l 1,4-dithiothreitol, and 0.1% Triton X-100 using a Polytron homogenizer. The homogenate was centrifuged at 15,000 g for 20 minutes and the clear supernatant was assayed for protocollagen prolyl hydroxylase activity by the method of Hutton et al [Analytical Biochemistry 16, 384 (1966)]. The protein content of the homogenate was measured by the method of Lowry et al [Journal of Biological Chemistry 193, 265 (1951)] using bovine serum albumin as the standard.
(§2) The specific activity of protocollagen prolyl hydroxylase and hydroxyproline content in the liver treated with the compound as shown in Table 3.

collagen biosynthesis [4] = experiment: Hydroxyproline content of liver in carbon tetrachloride-induced hepatic cirrhosis; type: in vivo, Male Sprague-Dawley rats; settings: CCl4 + compound, i.p. 100 mg/kg three times weekly, total 10 doses
Experimental: as §1
Hydroxyproline content of the livers was measured in a 6N-HCl hydrolysate (110° C., 22h) by the method of Blumenkrantz et al.
as §2

Acute toxicity = experiment: Acute toxicity; design: species or system male 4-week-old mice; settings: mouse, in vivo, ip; intraperitoneal; mice, groups of 5; 8 days observation
Experimental: Protocatechuic acid was intraperitoneally administered to male 4-week-old mice in groups of 5 animals and the animals were kept under observation for 8 days. The LD50 values thus found was >400 mg/kg for it.

[5] = 17-β-estradiol + compound, uterus, 7th day

In the case of `O=C(O)Cc1ccc(O)c(O)c1` [Homoprotocatechnic acid, homoprotocatechuic acid], the IC50 [1] is reported as 17.8 µM.

With `O=C(O)c1ccc(O)c(O)c1` [Protocatechuic acid, protocatechuic acid] the IC50 [1] was 19.5 µM, the “Body weight of rats, 7th day” value (collagen biosynthesis [2]; 17-β-estradiol + compound) was 75 ± 3 g and the Total collagen (collagen biosynthesis [2]; [5]) was 3.31 ± 0.37 mg/uterus. It also gave a Total protein (collagen biosynthesis [2]; [5]) of 25.4 ± 2.2 mg/uterus, an inhibition at 100 mg/kg (collagen biosynthesis [2]; uterus, read-out: Inhibition rate, collagen) of 85% and an inhibition at 100 mg/kg (collagen biosynthesis [2]; uterus, read-out: Inhibition rate, noncollagenous protein) of 15%. The Prolyl hydroxylase [3] was 1463 ± 236 dpm/mg of protein, the Hydroxyproline (collagen biosynthesis [4]) was 0.70 ± 0.09 μg/mg of liver and the LD50 at 192 h (Acute toxicity) was greater than 400 mg/kg.
